Results published in patent US20060223756A1, “Endothelial cell specifically binding peptides” (priority 2002, published 2006).

Experiments:
[1] = system: primary human umbilical vein endothelial cells (HUVEC); assay: In vitro transduction analysis (β-galactosidase, X-gal stain) on HUVEC; assay type: cell-based
Protocol: (§1) S8 cells are A549 cells stably transfected with adenoviral E1 and E2a genes under separate dexamethasone-inducible promoters (Gorziglia et al., 1996). S8 cells are cultured in IMEM (Biofluids, Rockville, Md.) with 10% heat inactivated fetal bovine serum (HIFBS). For virus production, the cells are cultured with 0.3 uM dexamethasone to induce the expression of E1 and E2a genes. H460 cells are a human non-small cell lung carcinoma (ATCC, Manassas, Va.) and are cultured in RPMI Medium 1640 (Life Technologies, Gaithersburg, Md.) with 10% HIFBS. PC3 cells are a human prostate carcinoma cell line (ATCC) and are cultured in RPMI Medium 1640 with 10% HIFBS. HeLa cells are a human cervical carcinoma cell line (ATCC) and are cultured in DMEM with 10% HIFBS. Primary human endothelial cells, in particular Human Umbilical Vein Endothelial Cells (HUVECs) are obtained from the Clonetics Corporation (Walkerville, Md.: AC-7018). The cells are cultured in the recommended medium.
(§2) The transduction efficiency of Av3nBgPD1 is surveyed using primary human umbilical vein endothelial cells (HUVEC) and on three human carcinoma cell lines including HeLa, PC3, and H460 cells. […] The percentage of transduction is determined by light microscopy by counting the number of positively transduced blue cells per field as described previously (Stevenson, et. al, 1997).

HeLa cells = assay: In vitro transduction analysis (β-galactosidase, X-gal stain) on HeLa; assay type: cell-based, human
Protocol: as §1, §2

PC3 cells = assay: In vitro transduction analysis (β-galactosidase, X-gal stain) on PC3; assay type: cell-based, human
Protocol: as §1, §2

CPDLHHHMC (Artificial sequence derived from human and animal adenovirus peptide sequences for binding to endothelial cell surface molecules) [PD1]
transduction compared with Av3nBg control, in words [1]: enhances transduction | transduction compared with Av3nBg control, in words (HeLa cells): offered no advantage | transduction compared with Av3nBg control, in words (PC3 cells): offered no advantage
